Reference: patent US20120149708A1, “MODULATORS OF VIRAL TRANSCRIPTION, AND METHODS AND COMPOSITIONS THEREWITH” (George Mason University, priority 2010, published 2012)
“Also recorded” adds a separate entry of the source.

Experiments:
TAR microRNA = assay: RNase protection assay for TAR and TAR miRNA in TNF treated ACH2 cells; assay type: cell-based, HIV-1; conditions: CR8#13 50 nm compared to Flavopiridol 50 nm, 48 hrs
From the text: Ten micrograms of total RNA from TNF treated CEM (lane 1) and TNF treated ACH2 cells (lanes 2-6) were hybridized to a radiolabeled TAR 5′ probe and then treated with RNase A. Arrows indicate the probe protected by TAR at 27 nucleotides and the probe protected by a TAR miRNA at approximately 22 nt. Cyc202 concentration at 500 nm, CR8 at 100 nm, CR8#13 at 50 nm, and Flavopiridol at 50 nm were used for these experiments.
Total RNA was extracted from TNF-treated CEM and ACH2 cells follow by drug treatment with Cyc202 (500 nm), CR8 ([…]), CR8#13 (50 nm), and Flavopiridol (50 nm) for 48 hrs using Trizol reagent (Invitrogen). RNase protection assays were performed as previously described (Klase et al, 2007).
RNA polymerase II associated with HIV-1 promoter, however, is phosphorylated on both Ser2 and 5 in the presence of Tat (see Zhou et al, 2004). In order to ascertain whether or not cells treated with CDK inhibitors according to the present invention produce additional TAR derived miRNA, the inevntor utilized RNase protection assays to detect small RNA fragments corresponding to the TAR sequence.
Briefly, a probe complementary to the entire length of the 5′ portion of the TAR stem loop was designed, which would detect the generation of ˜21 nt RNAs from any position within that sequence. […]

[1] = test system: CIITA, IL-8, CAD, MCL-1, Cyclin D1, and PBX-1; assay type: cell-based
Protocol: 293T cells were treated with three different concentrations of CR8#13 (20 nm, 50 nm, and 200 nm). Cells were processed 48 hrs-post treatment for RT-PCR. Effector cdk9 genes such as CIITA, IL-8, CAD, MCL-1, Cyclin D1, and PBX-1 were used in the RT-PCR.
For mRNA analysis of cdk9 related genes following drug treatments, total RNA was isolated from cells using Trizol (Invitrogen) according to the manufacturer's protocol. A total of 1 μg of RNA from the RNA fraction was treated with 0.25mg/ml DNase I for 60 min, followed by heat inactivation at 65° C. for 15 min. A total of 1 μg of total RNA was used to generate cDNA with the iScript cDNA Synthesis kit (Bio-Rad) using oligo-dT reverse primers.
A determination whether inhibition cdk9 by compounds of the present invention altered the responsiveness of cdk9 dependent cellular genes, was made by the present inventor by testing the effect of CR8#13 (BJFP1154), of viral transcriptional activity utilizing a known set of cellular and viral genes.

HIV-1 LTR [2] = assay: Luciferase assay of Tat-dependent HIV-1 LTR transcription in TZM-bl cells; assay type: cell-based; conditions: TZM-bl cells transfected with Tat, 50 nm, 48 hrs
Protocol: FIGS. 1 and 2 show screening results of CR8 derivatives on Tat-dependent transcription HIV-1 LTR. […] TZM-bl cells were transfected with 1 ug of Tat and treated the next day with DMSO, or the indicated CR8 derivative compounds at 50 nm. 48 hrs-post drug treatment, luciferase activity of the firefly luciferase was measured with the BrightGlo Luciferase Assay and luminescence was read from a 96 well plate on an EG&G Berthold luminometer. Assays were performed in triplicate, average and standard deviations are shown.
TZM-bl cells were transfected with pc-Tat (0.5 μg) using Attractene reagent (Qiagen) according to the manufacturers' instructions. Twenty-four hours later, cells were treated with DMSO or the indicated compound. Forty-eight hours-post drug treatment, luciferase activity of the firefly luciferase was measured with the BrightGlo Luciferase Assay (Promega).
These cells were brought into contact with 18 Formula I compounds.
Briefly, the addition of Tat protein enables activated transcription of HIV-1 promoter driving luciferase in these cells. Treated cells were assayed at 48 hrs after Tat transfection and drug treatment.

integrated HIV-1-Luc = assay: Luciferase assay in TSA treated TZM-bl cells; assay type: cell-based; conditions: TSA and CR8#13 versus TSA alone
Protocol: Luciferase activity increased with TSA treatment and then decreased post-CR8#13 treatment.
(§1) To observe the effect of drug on heterochrmatin formation, the present inventor used a ChIP assay. Briefly, TZM-bl cells were treated with TSA (FIGS. 16 and 17), and then treated with CR8#13.

HIV-1 LTR [3] = assay: ChIP assay on HIV-1 LTR in TSA treated TZM-bl cells; assay type: cell-based; conditions: TZM-bl after TSA treatment
Protocol: Primers specific for the HIV-1 LTR were used to amplify DNA that was precipitated with each antibody. Lane 1 indicates basal levels of repressive markers on the HIV-1 LTR.
TZM-bl cells were treated with TSA for 7 days and processed for ChIP. For ChIP, approximately 5×10^6 cells were used per IP. ChIP assays were performed as previously described. PCR was performed using 0.1 μM of HIV-1 LTR primers (Klase et al, 2007; Guendel et al, 2009; Easley et al, 2010).
as §1

HIV-1 LTR-CAT reporter = assay: CAT assay of Tat-mediated transactivation in HCT116 WT and Dicer-/- cells; assay type: cell-based; conditions: HCT116 WT (Dicer) versus Dicer-/-; 48 hrs; Flavopiridol, CR8#13, F07#13 100 nm, 9AA 1000 nm
Protocol: Six hours later, the transfected cells were treated with DMSO, Flavopirodol (100 nm), CR8#13 (100 nm), F07#13 (100 nm), and 9AA (1000 nm). Treated cells were incubated in complete DMEM for 48 hrs at 37° C. Cells were harvested and cell extracts were used for CAT analysis. One tenth the amount of HCT116 Dicer−/−extract compared to HCT116 WT was used for CAT analysis. […] The corresponding bar graphs in A and B show values that represent the percentage of conversion of the [14C] chloramphenicol substrate in the CAT assay.
Various cells lines were transfected with the HIV-1 LTRCAT plasmid and pc-Tat to initiate the LTR transcription, and subsequently subjected to various drug treatments. After 48 hrs, cells were lysed and CAT assays were performed as previously described (Guendel et al, 2009; Van Duyne et al, 2008; Easley et al, 2010).
To evaluate the role on microRNA machinery in inhibition of viral transcription activity, HCT116 colon carcinoma cell lines that either contained a WT Dicer (HCT116 WT) or lacked the Dicer protein (HCT116 Dicer-−/−) were first transfected with the HIV-1 LTR-CAT reporter construct. The HIV-1 LTR transcription was activated with pc-Tat and following incubation for 6 hours was treated with DMSO (negative control), Flavopiridol (positive control), CR8#13, F07#13, or 9AA.
Cells were harvested 48 hrs-post treatment and processed for CAT assays (FIGS. 3A and B). […] Based on this observation the inventors hypothesize that the microRNA machinery, Dicer and Drosha, plays an inhibitory role in HIV-1 transcription.

CC(C)c1cnn2c(NCc3ccc(-c4ccccn4)cc3)nc(NC[C@H](O)CO)nc12.O=C(O)/C=C/C(=O)O [BJFP1154]
levels of TAR and miTAR RNA (RPA) (TAR microRNA): Higher levels of TAR and miTAR RNA
transcription of cdk9 responsive genes [1]: did not inhibit transcription of genes that are cdk9 responsive
inhibition of HIV-1 LTR transcription (luciferase) (HIV-1 LTR [2]): greatest transcriptional inhibition; also recorded: significant inhibition of HIV-1 transcription
Luciferase activity (integrated HIV-1-Luc): decrease Luciferase activity
recruitment of HDAC1, Ago2, Suv39H1 to the HIV-1 promoter (ChIP) (HIV-1 LTR [3]): re-recruitment of heterochromatin markers
inhibition of viral transcription (CAT) (HIV-1 LTR-CAT reporter): inhibited viral transcription significantly better in cells that contained Dicer
